“Also recorded” adds a separate entry of the source. Read-outs that look alike come from different tables or passages of the source.

Experimental findings from US12691179B2, “Somatostatin receptor-based cancer therapy” (Vikas Kundra, priority 2010, dated 2026) are described below.

In test [1] the test system is Human ovarian cancer (Hey A8) tumors incorporating HS5 cells. In words: Growth of Hey A8 tumors co-injected with HS5 cells expressing or not expressing HA-SSTR2D314. In kind it is in vivo, nude mice. The conditions noted are these: intravenous. An excerpt:
FIG. 8: Stem cells expressing the signaling deficient mutant SSTR2D314 incorporate into tumor and can be targeted with a therapeutic for Inhibiting tumor growth.
Stem cells expressing the signaling deficient mutant SSTR2D314 incorporated into tumor and can be targeted with a therapeutic for inhibiting tumor growth (FIG. 8). […] Human ovarian cancer (Hey A8) cells were co-injected subcutaneously in nude mice with HS5 cells expressing or not expressing HA-SSTR2D314. […] Once tumors were established, 90Y-octreotate was delivered intravenously. Tumors were measured by calipers every two days. Tumors incorporating HS5 cells expressing the HA-SSTR2D314 mutant were growth inhibited compared to control (*p<0.05, HeyA8+HS5-SSTR2D314 vs HeyA8+HS5vector). The incorporated stem cells, but not the tumor cells, serve as a target for the therapeutic.

For test [2], the system named is HT1080 cells expressing wild-type or signaling deficient HA-SSTR2 receptors, or vector transfected. Put plainly: Cell death by trypan blue uptake in stably transfected HT1080 cells. In kind it is cell-based. Here is the method:
Stably transfected HT1080 cells were exposed to different amounts of ^90Y-DOTATATE for 1 hour and 72 hours.

In test [3] the test system is HT1080 tumors expressing HA-SSTR2 wild-type, HA-D314 or vector. Here is the method:
(§1) Stably transfected HT1080 cells were implanted subcutaneously in nude mice (three tumors, HA-wt, HA-D314, vector, per animal). When tumors were palpable, daily injections of the somatostatin analogue sandostatin were initiated and tumors were measured by calipers every two days.
(§2) Stably transfected HT1080 cells were implanted subcutaneously in nude mice (three tumors, HA-wt, HA-D314, vector, per animal).
(§3) Stably transfected HT1080 cells were implanted subcutaneously in nude mice (three tumors, HA-wt, HA-D314, vector, per animal). When tumors were palpable, 90Y-octreotate was given once at a dose of 1 mCi (FIG. 7A) or twice at doses of 2 mCi and 1 mCi (FIG. 7B).
as §1, §2, §3

Test [4] deals with Mouse ES cell-derived tumors expressing HA-SSTR2 or HA-SSTR2delta314. In words: Growth of embryonic stem cell-derived teratomas measured by calipers. In kind it is in vivo, nude mice. The conditions noted are these: tumors derived from wild type ES cells, i.v. twice. Here is the method:
Mouse ES cells (these are pluripotent stem cells that can be used to create transgenic mice and like most ES cells result in teratomas when injected in nude mice) were transfected with a plasmid containing HA-SSTR2 or HA-SSTR2delta314. Clones were then selected for expression. The cells were then injected into nude mice subcutaneously and tumor size was measured by calipers. After tumors were present in three locations per mouse in all 8 mice, the animals were injected i.v. with 90-Y labeled octreotate two days and 5 days later.
After tumors were present in three locations per mouse in all 8 mice, the animals were injected i.v. with 90-Y labeled octreotate two days and 5 days later as on the chart. Tumor size was measured by calipers. Unlike many stem cells, embryonic stem cells (ES) more commonly form teratomas. Inhibition of growth of established teratomas was assessed.

Test [5] concerns untransfected HT1080 cells admixed with HS5 cells. Put plainly: Bystander cell death, live/dead staining of HS5 mesenchymal stem cells admixed with untransfected HT1080 cells. In kind it is cell-based, human. The conditions noted are these: HS5 stably expressing wild-type or signaling deficient HA-SSTR2 admixed with untransfected HT1080, 24 hours. As to the method: FIG. 4: Exposure to 90Y-DOTA-octreotate (DOTATATE) results in bystander cell death of tumor cells. Human mesenchymal stem cells (HS5) stably expressing wild-type or signaling deficient HA-SSTR2 receptors or transfected with vector were admixed with untransfected HT1080 cells and then exposed to 90Y-DOTATATE for 24 hours. Then, live (green)/dead (red) staining was performed.
Mixing mesenchymal stem cells expressing SSTR2 or the signaling deficient mutant delta 314 with untransfected tumor cells results in kill of rosettes of clusters of cells that are not seen if mesenchymal stem cells transfected with vector are used (FIG. 4), consistent with bystander killing. Human mesenchymal stem cells (HS5) stably expressing wild-type or signaling deficient HA-SSTR2 receptors or transfected with vector were admixed with untransfected HT1080 cells and then exposed to 90Y-DOTATATE for 24 hours.

The subject of test [6] is Human ovarian cancer (Hey A8) tumors to which HS5 cells homed. Put plainly: Growth of Hey A8 tumors after systemic (intracardiac) injection of HS5 cells expressing or not expressing HA-SSTR2D314. The conditions noted are these: HeyA8 tumors, intravenous. In kind it is in vivo, nude mice. As to the method: FIG. 9: Stem cells expressing the signaling deficient mutant SSTR2D314 home to and incorporate into tumor and can be targeted with a therapeutic for inhibiting tumor growth.
Stem cells expressing the signaling deficient mutant SSTR2D314 home to and incorporate into tumor and can be targeted with a therapeutic for inhibiting tumor growth (FIG. 9). […] Human ovarian cancer (Hey A8) cells on one side and vehicle on the other side were injected subcutaneously in nude. Two days later, human mesenchymal stem cells (HS5 cells) expressing or not expressing HA-SSTR2D314 were injected systemically (intracardiac). […] Tumors were seen on the side injected with HeyA8 cells. Once tumors were established, 90Y-octreotate was delivered intravenously. Tumors were measured by calipers every two days. Tumors to which HS5 cells expressing the HA-SSTR2D314 mutant homed and incorporated were growth inhibited compared to control (*p<0.05, HeyA8+HS5-SSTR2D314 vs HeyA8+HS5vector). The incorporated stem cells not the tumor cells serve as a target for the therapeutic.

Test [7] relates to HT1080 cells (fibrosarcoma cells that do not endogenously express SSTR2). In words: MTT cell growth assay of HT1080 cells transfected with HA-SSTR2 wild-type or C-terminal deletions. The conditions noted are these: 5% FBS, with or without 100 nM sandostatin, three days. In kind it is cell-based. As to the method: Three days later, MTT assay was used to determine cell number.
In the following experiments, HA-tagged receptors were used.
(§4) Two days after transient transfection with HA-SSTR2D351 or HA-SSTR2D340, 3000 HT1080 cells were grown in the presence of 5% FBS with or without 100 nM of the somatostatin analogue sandostatin. Three days later, MTT assay was used to determine cell number.
(Tetrazolium dyes change colour on reduction, which living cells bring about.)

Another test has as its system HeyA8 tumors. Put plainly: Growth of HeyA8 tumors injected with adenovirus expressing HA-SSTR2delta340. The conditions noted are these: HeyA8 tumors in nude mice, intratumoral adenovirus. In kind it is in vivo. Here is the method: FIG. 12. Constitutively active SSTR2delta340 inhibits the growth of tumor cells. Nude mice were Injected subcutaneously with HeyA8 tumors cells and then each tumor was injected with adenovirus expressing HA-SSTR2delta340 or control inserts (8 tumors per group). Tumor size was measured by calipers. *p<0.05, tumors injected with adv-HA-SSTR2delta340 and given saline vs tumors injected with adv-GFP and given saline; for clarity only the comparison of these two groups is illustrated with *.
as §4

Setting [8] is: stably transfected HT1080 cells.

[^90Y-DOTA]-octreotate [90Y-DOTATATE]: the “tumor growth (calipers)” value in test [1] (HeyA8+HS5-SSTR2D314 co-injected subcutaneously) is “inhibited growth of human tumors incorporating HS5 human mesenchymal stem cells expressing SSTR2D314”; in test [1] (HeyA8+control HS5 (vector) co-injected subcutaneously), “not control HS5 cells”; in test [3] (tumors expressing signaling deficient receptor (HA-D314), once 1 mCi or twice 2 mCi and 1 mCi, listed as 90Y-octreotate), “inhibited growth of tumors expressing wild-type or signaling deficient receptors; also recorded: decreased in size in a dose dependent manner”; in test [3] (tumors expressing wild-type receptor, once 1 mCi or twice 2 mCi and 1 mCi), “inhibited growth of tumors expressing wild-type or signaling deficient receptors”; in test [3] (tumors from vector transfected cells, once 1 mCi or twice 2 mCi and 1 mCi) it was “not tumors derived from vector transfected cells”; in test [6] (HS5 expressing HA-SSTR2D314 injected intracardiac), “inhibited growth of human tumors to which human mesenchymal stem cells expressing HA-SSTR2D314 homed and incorporated”. Besides, in test [6] (control HS5 injected intracardiac), the “tumor growth (calipers)” value is reported as “not control HS5 cells”. The “cell death (trypan blue uptake)” value is “Dose dependent and time dependent killing was observed” in test [2] (HT1080 cells expressing signaling deficient HA-SSTR2, exposure 1 hour and 72 hours); “Dose dependent and time dependent killing was observed” in test [2] (HT1080 cells expressing wild-type HA-SSTR2, exposure 1 hour and 72 hours). Further, the “teratoma growth (calipers)” value in test [4] was “not tumors derived from wild type ES cells”. In addition, the “bystander cell death (live/dead staining)” value in test [5] is reported as “Rosettes (clusters) of dead cells were seen”.
“HA-SSTR2D340: constitutively active human SSTR2 mutant, C-terminal amino acids after position 340 deleted (amino acids 1-340 of SEQ ID NO:6), HA-tagged”: the “cell growth (cell number by MTT assay)” value is “inhibits growth even without ligand stimulation” in test [7] (setting [8]) and “inhibit growth even without ligand stimulation” in test [7] (transiently transfected HT1080 cells). Further, the “tumor growth (size by calipers)” value in the test on HeyA8 tumors is reported as “inhibits the growth of tumor cells in vivo”.
As to octreotide, the “tumor growth (calipers)” value in test [3] (tumors expressing signaling deficient receptor (HA-D314), daily injections) is recorded as “no decrease in tumor size was seen”; in test [3] (tumors expressing wild-type receptor, daily injections), “inhibited growth of tumors expressing wild-type receptor”; in test [3] (tumors from vector transfected cells, daily injections), “not the signaling deficient receptor or tumors derived from vector transfected cells”.
In the case of “wild-type SSTR2: HA-tagged wild-type (full length) human somatostatin receptor type 2”, in test [7] (setting [8]), the “cell growth (cell number by MTT assay)” value was “require ligand stimulation to inhibit growth”.
On to “HA-SSTR2D314: signaling deficient human SSTR2 truncated carboxy terminal to amino acid 314 (amino acids 1-314 of SEQ ID NO:6), HA-tagged”, for which the “cell growth (cell number by MTT assay)” value in test [7] (setting [8]) is on record as “does not inhibit cellular growth upon ligand stimulation”.
